Test results: patent publication US10770169B2, “Method of providing a treatment to a subject based on a dynamic pathway map” (THE REGENTS OF THE UNIVERSITY OF CALIFORNIA, priority 2010, dated 2020)

System: panel of 55 breast cancer cell lines
Experiment: Cell growth inhibition assay (Cell Titer Glo, 72 h, 9 doses; GI50, TGI, LC50)
Type: cell-based, human
Conditions: value is the negative log10 of mol/L
[1] = HCC1419 cell line, censored GI50 values
[2] = HCC1428 cell line, censored GI50 values
[3] = HCC2185 cell line, censored GI50 values
[4] = MDAMB175VII cell line, censored GI50 values
[5] = MDAMB361 cell line, censored GI50 values
[6] = SUM52PE cell line, censored GI50 values
[7] = SUM185PE cell line, censored GI50 values
[8] = SUM225CWN cell line, censored GI50 values
[9] = SUM1315MO2 cell line, censored GI50 values
[10] = T47D cell line, censored GI50 values

CC(C)(C)c1cc(C=C(C#N)C#N)cc(Br)c1O [AG1024]
GI50 (HCC70 cell line, censored GI50 values): 5.21
GI50 (HCC202 cell line, censored GI50 values): 4.92
GI50 [1]: 4.70
GI50 [2]: 5.05
GI50 [3]: 5.11
GI50 (HCC3153 cell line, censored GI50 values): 5.11
GI50 (MDAMB134VI cell line, censored GI50 values): 4.69
GI50 [4]: 4.82
GI50 [5]: 4.69
GI50 [6]: 5.45
GI50 [7]: 5.57
GI50 [8]: 5.03
GI50 [9]: 5.17
GI50 [10]: 4.68
GI50 (UACC893 cell line, censored GI50 values): 4.75
GI50 (cell line AU565): 4.48
GI50 (cell line BT20): 4.48
GI50 (cell line BT474): 4.48
GI50 (cell line BT483): 4.48
GI50 (cell line BT549): 4.48
GI50 (cell line CAMA1): 4.48
GI50 (cell line HCC38): 4.48
GI50 (cell line HCC70): 5.21
GI50 (cell line HCC202): 4.92
GI50 (cell line HCC1143): 4.58
GI50 (cell line HCC1187): 4.48
GI50 (cell line HCC1395): 4.48
GI50 (cell line HCC1419): 4.70
GI50 (cell line HCC1428): 5.05
GI50 (cell line HCC1500): 4.58
GI50 (cell line HCC1806): 4.48
GI50 (cell line HCC1937): 4.48
GI50 (cell line HCC1954): 4.50
GI50 (cell line HCC2185): 5.11
GI50 (cell line HCC3153): 5.11
GI50 (cell line LY2): 4.48
GI50 (cell line MCF7): 4.48
GI50 (cell line MDAMB134V): 4.69
GI50 (cell line MDAMB157): 4.48
GI50 (cell line MDAMB175V): 4.82
GI50 (cell line MDAMB361): 4.69
GI50 (cell line MDAMB415): 4.48
GI50 (cell line MDAMB436): 4.48
GI50 (cell line MDAMB453): 4.51
GI50 (cell line MDAMB468): 4.48
GI50 (cell line SKBR3): 4.48
GI50 (cell line SUM52PE): 5.45
GI50 (cell line SUM149PT): 4.48
GI50 (cell line SUM185PE): 5.57
GI50 (cell line SUM225CWN): 5.03
GI50 (cell line SUM1315MO): 5.17
GI50 (cell line T47D): 4.68
GI50 (cell line UACC812): 4.48
GI50 (cell line UACC893): 4.75
GI50 (cell line ZR75B): 4.48
GI50 (cell line ZR751): 4.52

O=C1NC(=O)/C(=C/c2ccc(-c3ccc(F)cc3O)o2)S1 [AS-252424]
GI50 (AU565 cell line, censored GI50 values): 4.87
GI50 (BT20 cell line, censored GI50 values): 4.65
GI50 (BT474 cell line, censored GI50 values): 5.36
GI50 (BT483 cell line, censored GI50 values): 5.37
GI50 (HCC1187 cell line, censored GI50 values): 5.78
GI50 [1]: 4.69
GI50 [2]: 5.31
GI50 (HCC1500 cell line, censored GI50 values): 5.24
GI50 (HCC1806 cell line, censored GI50 values): 5.15
GI50 (HCC1954 cell line, censored GI50 values): 5.46
GI50 [3]: 4.46
GI50 (MCF7 cell line, censored GI50 values): 4.80
GI50 [4]: 4.61
GI50 [5]: 4.71
GI50 (MDAMB436 cell line, censored GI50 values): 4.74
GI50 (MDAMB453 cell line, censored GI50 values): 4.69
GI50 (SKBR3 cell line, censored GI50 values): 4.40
GI50 [6]: 4.44
GI50 (SUM149PT cell line, censored GI50 values): 4.66
GI50 [7]: 5.27
GI50 [8]: 5.02
GI50 [9]: 4.75
GI50 [10]: 5.25
GI50 (UACC812 cell line, censored GI50 values): 4.88
GI50 (ZR75B cell line, censored GI50 values): 4.65
GI50 (ZR751 cell line, censored GI50 values): 5.20
GI50 (cell line AU565): 4.87
GI50 (cell line BT20): 4.65
GI50 (cell line BT474): 5.36
GI50 (cell line BT483): 5.37
GI50 (cell line CAMA1): 4.18
GI50 (cell line HCC70): 4.67
GI50 (cell line HCC1187): 5.78
GI50 (cell line HCC1419): 4.69
GI50 (cell line HCC1428): 5.31
GI50 (cell line HCC1500): 5.24
GI50 (cell line HCC1806): 5.15
GI50 (cell line HCC1937): 4.18
GI50 (cell line HCC1954): 5.46
GI50 (cell line HCC2185): 4.46
GI50 (cell line HCC3153): 4.48
GI50 (cell line LY2): 4.51
GI50 (cell line MCF7): 4.80
GI50 (cell line MDAMB134V): 4.30
GI50 (cell line MDAMB175V): 4.61
GI50 (cell line MDAMB361): 4.71
GI50 (cell line MDAMB436): 4.74
GI50 (cell line MDAMB453): 4.69
GI50 (cell line MDAMB468): 4.18
GI50 (cell line SKBR3): 4.40
GI50 (cell line SUM52PE): 4.44
GI50 (cell line SUM149PT): 4.66
GI50 (cell line SUM185PE): 5.27
GI50 (cell line SUM225CWN): 5.02
GI50 (cell line SUM1315MO): 4.75
GI50 (cell line T47D): 5.25
GI50 (cell line UACC812): 4.88
GI50 (cell line ZR75B): 4.65
GI50 (cell line ZR751): 5.20
